Here are results for 37 compounds from ChEMBL document CHEMBL1177720, “Selective hexapeptide agonists and antagonists for human complement C3a receptor” (J Med Chem, 2010).

Assay [1] concerns the target T1, C3a anaphylatoxin chemotactic receptor (Homo sapiens, UniProt Q16581).
T1 sequence (Q16581 whole entry): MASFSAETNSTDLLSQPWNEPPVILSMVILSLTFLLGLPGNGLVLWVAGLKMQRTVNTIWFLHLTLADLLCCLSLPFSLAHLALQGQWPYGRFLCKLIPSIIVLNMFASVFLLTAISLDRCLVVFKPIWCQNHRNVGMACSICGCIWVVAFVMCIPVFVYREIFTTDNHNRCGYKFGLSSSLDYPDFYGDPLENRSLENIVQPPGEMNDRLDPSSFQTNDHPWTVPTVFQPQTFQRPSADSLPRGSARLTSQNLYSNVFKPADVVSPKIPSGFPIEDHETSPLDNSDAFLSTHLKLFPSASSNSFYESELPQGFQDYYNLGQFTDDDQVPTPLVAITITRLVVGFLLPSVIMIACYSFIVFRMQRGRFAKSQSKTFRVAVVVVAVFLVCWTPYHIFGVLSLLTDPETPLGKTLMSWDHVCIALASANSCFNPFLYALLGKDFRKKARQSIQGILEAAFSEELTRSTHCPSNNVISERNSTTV
As to the kind of experiment: Agonist activity at human C3a receptor in human U937 cells assessed as induction of intracellular calcium release. Type of assay: functional, cell-based, U-937.

Assay [2] concerns the target T2, C3a anaphylatoxin chemotactic receptor (Homo sapiens) (UniProt Q16581).
T2 sequence (whole entry): T1 sequence (Q16581 whole entry)
As to the kind of experiment: Agonist activity at human C3a receptor in human U937 cells assessed as induction of intracellular calcium release at 1 mM. Type of assay: functional, cell-based. Conditions: U-937.

Calls of active or inactive are those of the source. The rule behind the calls is not given here. Square brackets hold non-standard residues; d marks the D form. Peptide text beside a SMILES is read from it. 1Nal = N[C@@H](Cc1cccc2ccccc12)C(=O)O; hPhe = N[C@@H](CCc1ccccc1)C(=O)O; Cha = N[C@@H](CC1CCCCC1)C(=O)O; Nle = CCCC[C@H](N)C(=O)O

For `CSCC[C@H](NC(=O)[C@@H]1CCCN1C(=O)[C@H](CCCCN)NC(=O)[C@H](Cc1cnc[nH]1)NC(=O)[C@H](CO)NC(=O)[C@@H](N)Cc1ccc(O)cc1)C(=O)N1CCC[C@H]1C(=O)N[C@@H](CC(C)C)C(=O)N[C@H](C)C(=O)N[C@@H](CCCN=C(N)N)C(=O)O`, the EC50 in assay [1] (read-out: EC50) came to 5.7 µM. Regarding `N=C(N)NCCC[C@@H](NC(=O)[C@H](CC1CCCCC1)NC(=O)[C@@H](CC1CCCCC1)NC(=O)[C@@H]1CCCN1C(=O)[C@H](CCCCN)NC(=O)[C@@H](N)Cc1ccccc1)C(N)=O`, the EC50 in assay [1] (read-out: EC50) stood at 2.2 µM. In the case of `CC(C)C[C@H](NC(=O)[C@@H](NC(=O)[C@H](CC(C)C)NC(=O)[C@@H](N)Cc1ccccc1)C(C)C)C(=O)N[C@@H](C)C(=O)N[C@H](CCCN=C(N)N)C(=O)O`, the EC50 in assay [1] (read-out: EC50) is 57 µM. With `CC(C)C[C@H](NC(=O)[C@@H](N)Cc1ccccc1)C(=O)N[C@H](C(=O)N[C@H](CC1CCCCC1)C(=O)N[C@@H](C)C(=O)N[C@@H](CCCNC(=N)N)C(=O)O)[C@@H](C)O`, the result in assay [2] was inactive. `CC(=O)N[C@@H](Cc1ccccc1)C(=O)N[C@@H](CC(C)C)C(=O)N[C@H](C(=O)N[C@@H](CC(C)C)C(=O)N[C@@H](C)C(=O)N[C@@H](CCCNC(=N)N)C(=O)O)[C@@H](C)O` (Ac-FLTLAR-OH): the EC50 in assay [1] (read-out: EC50) was 0.52 µM.

For the compound `CC(C)C[C@H](NC(=O)[C@@H]1CCCN1C(=O)[C@H](CCC(=O)O)NC(=O)[C@@H](N)Cc1ccccc1)C(=O)N[C@@H](C)C(=O)N[C@@H](CCCNC(=N)N)C(=O)O` (H-FEPLAR-OH), in assay [2], the outcome was inactive. For the compound `CC(C)C[C@H](NC(=O)[C@@H]1CCCN1C(=O)[C@H](Cc1ccccc1)NC(=O)[C@@H](N)Cc1ccccc1)C(=O)N[C@@H](C)C(=O)N[C@@H](CCCNC(=N)N)C(=O)O` (H-FFPLAR-OH), in assay [1] (read-out: EC50), the EC50 came out at 5.4 µM. In the case of `CC(C)C[C@H](NC(=O)[C@H](Cc1ccccc1)NC(=O)[C@H](CCCCN)NC(=O)[C@@H](N)Cc1ccccc1)C(=O)N[C@@H](C)C(=O)N[C@@H](CCCNC(=N)N)C(=O)O` (H-FKFLAR-OH), in assay [2], the result was inactive. Same read-out and setting: next, `C[C@H](NC(=O)[C@H](Cc1ccccc1)NC(=O)[C@@H]1CCCN1C(=O)[C@H](CCCCN)NC(=O)[C@@H](N)Cc1ccccc1)C(=O)N[C@@H](CCCNC(=N)N)C(=O)O` (H-FKPFAR-OH): “inactive”. `CC(C)C[C@H](NC(=O)[C@@H]1CCCN1C(=O)[C@H](CCCCN)NC(=O)[C@@H](N)Cc1ccccc1)C(=O)N[C@@H](C)C(=O)N[C@@H](CCCNC(=N)N)C(=O)O` (H-FKPLAR-OH): the EC50 in assay [1] (read-out: EC50) worked out at 33 µM.

`CC(C)C[C@H](NC(=O)[C@@H]1CCCN1C(=O)[C@H](CCCCN)NC(=O)[C@@H](N)Cc1ccccc1)C(=O)N[C@@H](Cc1ccccc1)C(=O)N[C@@H](CCCNC(=N)N)C(=O)O` (H-FKPLFR-OH): the result in assay [2] was inactive. As to `CC(C)C[C@H](NC(=O)[C@@H]1CCCN1C(=O)[C@H](CCCCN)NC(=O)[C@@H](N)Cc1ccccc1)C(=O)N[C@@H](Cc1c[nH]c2ccccc12)C(=O)N[C@@H](CCCN=C(N)N)C(=O)O` (H-FKPLWR-OH), in assay [1] (read-out: EC50), the EC50 came out at 25 µM. In the case of `CC(C)C[C@H](NC(=O)[C@@H]1CCCN1C(=O)[C@H](CCCCN)NC(=O)[C@@H](N)Cc1ccccc1)C(=O)N[C@@H](CC1CCCCC1)C(=O)N[C@@H](CCCNC(=N)N)C(=O)O` (H-FKPL[Cha]R-OH), the result in assay [2] was inactive. Still for that read-out and setting: to `C[C@H](NC(=O)[C@H](Cc1c[nH]c2ccccc12)NC(=O)[C@@H]1CCCN1C(=O)[C@H](CCCCN)NC(=O)[C@@H](N)Cc1ccccc1)C(=O)N[C@@H](CCCNC(=N)N)C(=O)O` (H-FKPWAR-OH) belongs “inactive”. Same read-out and setting: next, `C[C@H](NC(=O)[C@H](CC1CCCCC1)NC(=O)[C@@H]1CCCN1C(=O)[C@H](CCCCN)NC(=O)[C@@H](N)Cc1ccccc1)C(=O)N[C@@H](CCCNC(=N)N)C(=O)O` (H-FKP[Cha]AR-OH): “inactive”.

As for `CCCC[C@H](NC(=O)[C@@H]1CCCN1C(=O)[C@H](CCCCN)NC(=O)[C@@H](N)Cc1ccccc1)C(=O)N[C@@H](C)C(=O)N[C@@H](CCCN=C(N)N)C(=O)O` (H-FKP[Nle]AR-OH), in assay [1] (read-out: EC50), the EC50 was determined as 38 µM. Still for that read-out and setting: next, `CC(C)C[C@H](NC(=O)[C@@H](NC(=O)[C@H](CCCCN)NC(=O)[C@@H](N)Cc1ccccc1)[C@@H](C)O)C(=O)N[C@@H](C)C(=O)N[C@@H](CCCNC(=N)N)C(=O)O` (H-FKTLAR-OH): 3.8 µM.

`CC(C)C[C@H](NC(=O)[C@H](C)NC(=O)[C@H](CC(C)C)NC(=O)[C@@H](N)Cc1ccccc1)C(=O)N[C@@H](C)C(=O)N[C@@H](CCCNC(=N)N)C(=O)O` (H-FLALAR-OH): the results for the EC50 in assay [1] (read-out: EC50) and in assay [1] (read-out: pEC50 (converted)) were 101 µM and 1.1 µM, respectively. Take `CC(C)C[C@H](NC(=O)[C@@H]1CCCN1C(=O)[C@H](CC(C)C)NC(=O)[C@@H](N)Cc1ccccc1)C(=O)N[C@@H](C)C(=O)N[C@@H](CCCNC(=N)N)C(=O)O` (H-FLPLAR-OH): the EC50 in assay [1] (read-out: EC50) is 0.42 µM. With `CC(C)C[C@H](NC(=O)[C@H](CO)NC(=O)[C@H](CC(C)C)NC(=O)[C@@H](N)Cc1ccccc1)C(=O)N[C@@H](C)C(=O)N[C@@H](CCCNC(=N)N)C(=O)O` (H-FLSLAR-OH), the EC50 in assay [1] (read-out: EC50) was found to be 0.36 µM. As for `CC[C@H](C)[C@H](NC(=O)[C@@H](NC(=O)[C@H](CC(C)C)NC(=O)[C@@H](N)Cc1ccccc1)[C@@H](C)O)C(=O)N[C@@H](C)C(=O)N[C@@H](CCCNC(=N)N)C(=O)O` (H-FLTIAR-OH), in assay [2], the result was inactive. In the case of `CC(C)C[C@H](NC(=O)[C@@H](NC(=O)[C@H](CC(C)C)NC(=O)[C@@H](N)Cc1ccccc1)[C@@H](C)O)C(=O)N[C@@H](C)C(=O)N[C@@H](CCCN=C(N)N)C(N)=O` (H-FLTLAR-NH2), the EC50 in assay [1] (read-out: EC50) turned out to be 37 µM. In the case of `CC(C)C[C@H](NC(=O)[C@H](CC(C)C)NC(=O)[C@@H](NC(=O)[C@H](CC(C)C)NC(=O)[C@@H](N)Cc1ccccc1)[C@@H](C)O)C(=O)N[C@@H](CCCNC(=N)N)C(=O)O` (H-FLTLLR-OH), the result in assay [2] was inactive. `CC(C)C[C@H](NC(=O)[C@@H](N)Cc1ccccc1)C(=O)N[C@H](C(=O)N[C@@H](CC(C)C)C(=O)N1CCC[C@H]1C(=O)N[C@@H](CCCN=C(N)N)C(=O)O)[C@@H](C)O` (H-FLTLPR-OH): the EC50 in assay [1] (read-out: EC50) was 29 µM. Still for that read-out and setting: next, `CCCC[C@H](NC(=O)[C@@H](NC(=O)[C@H](CC(C)C)NC(=O)[C@@H](N)Cc1ccccc1)[C@@H](C)O)C(=O)N[C@@H](C)C(=O)N[C@@H](CCCN=C(N)N)C(=O)O` (H-FLT[Nle]AR-OH): 2.7 µM; `CC(C)C[C@H](NC(=O)[C@@H]1CCCN1C(=O)[C@H](CCC(N)=O)NC(=O)[C@@H](N)Cc1ccccc1)C(=O)N[C@@H](C)C(=O)N[C@@H](CCCNC(=N)N)C(=O)O` (H-FQPLAR-OH): 5.3 µM. With `CC(C)C[C@H](NC(=O)[C@@H](NC(=O)[C@H](CCCNC(=N)N)NC(=O)[C@@H](N)Cc1ccccc1)[C@@H](C)O)C(=O)N[C@@H](C)C(=O)N[C@@H](CCCNC(=N)N)C(=O)O` (H-FRTLAR-OH), the EC50 in assay [1] (read-out: EC50) came to 6.8 µM. Still for that read-out and setting: next, `CC(C)C[C@H](NC(=O)[C@H](C)NC(=O)[C@H](Cc1c[nH]c2ccccc12)NC(=O)[C@@H](N)Cc1ccccc1)C(=O)N[C@@H](C)C(=O)N[C@@H](CCCN=C(N)N)C(=O)O` (H-FWALAR-OH): 1.2 µM; `CC(C)C[C@H](NC(=O)CNC(=O)[C@H](Cc1c[nH]c2ccccc12)NC(=O)[C@@H](N)Cc1ccccc1)C(=O)N[C@@H](C)C(=O)N[C@@H](CCCNC(=N)N)C(=O)O` (H-FWGLAR-OH): 0.47 µM; `CC(C)C[C@H](NC(=O)[C@H](CO)NC(=O)[C@H](Cc1c[nH]c2ccccc12)NC(=O)[C@@H](N)Cc1ccccc1)C(=O)N[C@@H](C)C(=O)N[C@@H](CCCNC(=N)N)C(=O)O` (H-FWSLAR-OH): 0.49 µM. The same measure, in the same setting: next, `CC(C)C[C@H](NC(=O)[C@@H]1CCCN1C(=O)[C@H](Cc1cccc2ccccc12)NC(=O)[C@@H](N)Cc1ccccc1)C(=O)N[C@@H](C)C(=O)N[C@@H](CCCNC(=N)N)C(=O)O` (H-F[1Nal]PLAR-OH): 0.72 µM; `CC(C)C[C@H](NC(=O)[C@@H]1CCCN1C(=O)[C@H](CC1CCCCC1)NC(=O)[C@@H](N)Cc1ccccc1)C(=O)N[C@@H](C)C(=O)N[C@@H](CCCNC(=N)N)C(=O)O` (H-F[Cha]PLAR-OH): 0.78 µM.

For the compound `CCCC[C@H](NC(=O)[C@@H](N)Cc1ccccc1)C(=O)N1CCC[C@H]1C(=O)N[C@@H](CC(C)C)C(=O)N[C@@H](C)C(=O)N[C@@H](CCCN=C(N)N)C(=O)O` (H-F[Nle]PLAR-OH), the EC50 in assay [1] (read-out: EC50) was determined as 1.8 µM. On the same count and under the same terms, to `CCCC[C@H](NC(=O)[C@@H](N)Cc1ccccc1)C(=O)N[C@H](C(=O)N[C@@H](CC(C)C)C(=O)N[C@@H](C)C(=O)N[C@@H](CCCN=C(N)N)C(=O)O)[C@@H](C)O` (H-F[Nle]TLAR-OH) belongs 0.31 µM; to `CC(C)C[C@H](NC(=O)[C@@H]1CCCN1C(=O)[C@H](CCc1ccccc1)NC(=O)[C@@H](N)Cc1ccccc1)C(=O)N[C@@H](C)C(=O)N[C@@H](CCCN=C(N)N)C(=O)O` (H-F[hPhe]PLAR-OH), 1.1 µM.

As to `CC(C)C[C@H](NC(=O)[C@@H](NC(=O)[C@H](CC(C)C)NC(=O)[C@@H](N)Cc1ccc(O)cc1)[C@@H](C)O)C(=O)N[C@@H](C)C(=O)N[C@@H](CCCN=C(N)N)C(=O)O` (H-YLTLAR-OH), the EC50 in assay [1] (read-out: EC50) was determined as 2.5 µM. `CC(C)C[C@H](NC(=O)[C@@H](NC(=O)[C@H](CC(C)C)NC(=O)[C@@H](N)CCc1ccccc1)[C@@H](C)O)C(=O)N[C@@H](C)C(=O)N[C@@H](CCCNC(=N)N)C(=O)O` (H-[hPhe]LTLAR-OH): the EC50 in assay [1] (read-out: EC50) was found to be 11 µM.
